Test results taken from patent publication US7122624B2, “Parathyroid hormone receptor ligands” (The United States of America as represented by the …, priority 1999, dated 2006).
Where two headings read alike, the source gives them in different places. Blank lines part the entries; values can stand above or below the compound they belong to. Non-standard residues stand in square brackets, D forms with d. Residues, ends and D or L forms follow the SMILES beside them. Nle = CCCC[C@H](N)C(=O)O

Legend:
PTH2 receptor [1] = molecular target: T1, PTH2 receptor (Homo sapiens, UniProt P49190); experiment: cAMP accumulation in COS-7 cells transiently expressing the human PTH2 receptor; type: cell-based; set-up: expressed in transfected cells; host or cells: COS-7 (transient)
Source text: (§1) Cell culture supplies were obtained from Life Technologies (Frederick, Md.) except for fetal bovine serum which was from Sigma (St. Louis, Mo.).
(§2) The constructs containing the cDNA sequences of the human PTH2 receptor and β-galactosidase have been previously described.
(§3) All peptides were purchased from either Bachem (Torrance, Calif.) or Peninsula Laboratories (Belmont, Calif.). The letters ‘b,’ ‘r’ and ‘h’ designate the peptide sequence as bovine, rat and human, respectively. […] [α-^32P]dCTP was purchased from ICN Biomedicals (Costa Mesa, Calif.). Bovine hypothalamic extract was prepared by acid extraction, gel-filtration and reverse-phase HPLC as previously described. […] Antagonist inhibitory potency was examined by measuring the concentration-dependence of rPTH(1–34)-stimulated cAMP accumulation in the presence and absence of antagonist.
(§4) Statistical comparison of two sample means was evaluated using the two-tailed Student's t-test. […] Antagonist inhibitory potency was quantified using the pA2, value, the negative logarithm of the concentration of antagonist that produces a two-fold decrease of agonist EC50. This was calculated using the following equation: pA2=((EC50/EC50′)−1)−log [antagonist]

rat PTH2 receptor = molecular target: T2, rat PTH2 receptor (Rattus norvegicus, UniProt P70555); experiment: cAMP accumulation in COS-7 cells transiently expressing the rat PTH2 receptor; type: cell-based
T2 construct: expressed in transfected cells; host or cells: COS-7 (transient)
Description: To express rat PTH2 receptor in cell culture, a rat hypothalamus cDNA library was prepared in the vector CDM7 amp as described. […] A clone was isolated from a single positive pool by colony hybridization using the same ^32P labeled probe.
as §1, §2, §3, §4

human PTH1 receptor [2] = molecular target: T3, human PTH1 receptor (Homo sapiens, UniProt Q03431); experiment: cAMP accumulation in COS-7 cells transiently expressing the human PTH1 receptor; settings: 20% human plasma
T3 sequence (Q03431 27-593): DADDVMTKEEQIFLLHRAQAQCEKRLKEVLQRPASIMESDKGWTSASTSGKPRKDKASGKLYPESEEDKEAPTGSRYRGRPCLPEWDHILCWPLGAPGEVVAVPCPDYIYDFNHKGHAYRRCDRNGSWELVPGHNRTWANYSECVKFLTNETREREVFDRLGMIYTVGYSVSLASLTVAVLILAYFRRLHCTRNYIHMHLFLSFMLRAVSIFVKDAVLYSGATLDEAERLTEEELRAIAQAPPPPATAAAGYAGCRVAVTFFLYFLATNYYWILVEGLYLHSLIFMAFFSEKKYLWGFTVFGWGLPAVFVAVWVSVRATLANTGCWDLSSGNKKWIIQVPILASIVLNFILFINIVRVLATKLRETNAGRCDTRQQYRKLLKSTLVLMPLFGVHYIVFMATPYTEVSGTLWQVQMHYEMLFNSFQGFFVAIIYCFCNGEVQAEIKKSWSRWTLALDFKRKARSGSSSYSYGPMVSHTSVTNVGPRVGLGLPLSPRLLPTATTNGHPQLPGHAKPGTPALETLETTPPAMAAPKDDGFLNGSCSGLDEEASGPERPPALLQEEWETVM

human PTH1 receptor [3] = molecular target: T3, human PTH1 receptor; experiment: Radioligand displacement binding to HEK293 cell membranes expressing the human PTH1 receptor; settings: presence of 10 μM GTPγS
PTH2 receptor [4] = molecular target: T1, PTH2 receptor; experiment: Radioligand displacement binding to HEK293 cell membranes expressing the human PTH2 receptor
[5] = 1 μM antagonist against rPTH(1–34)-stimulated cAMP
[6] = rat receptor response relative to human PTH2 receptor response measured in parallel

T2 sequence (P70555 25-546): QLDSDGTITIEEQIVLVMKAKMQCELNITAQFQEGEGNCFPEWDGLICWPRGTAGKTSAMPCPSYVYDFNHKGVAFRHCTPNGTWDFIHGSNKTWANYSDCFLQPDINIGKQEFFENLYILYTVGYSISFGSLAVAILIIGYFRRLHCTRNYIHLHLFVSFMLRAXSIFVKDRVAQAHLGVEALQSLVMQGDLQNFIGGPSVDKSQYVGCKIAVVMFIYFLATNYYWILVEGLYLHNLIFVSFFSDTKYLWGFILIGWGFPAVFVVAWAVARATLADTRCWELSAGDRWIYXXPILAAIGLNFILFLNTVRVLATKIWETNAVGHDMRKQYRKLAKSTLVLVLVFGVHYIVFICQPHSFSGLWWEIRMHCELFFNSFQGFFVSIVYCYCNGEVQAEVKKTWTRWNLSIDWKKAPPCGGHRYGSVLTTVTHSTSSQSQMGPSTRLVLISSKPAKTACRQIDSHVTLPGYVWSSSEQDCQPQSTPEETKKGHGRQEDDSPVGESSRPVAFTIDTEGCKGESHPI
T1 sequence (P49190 25-550): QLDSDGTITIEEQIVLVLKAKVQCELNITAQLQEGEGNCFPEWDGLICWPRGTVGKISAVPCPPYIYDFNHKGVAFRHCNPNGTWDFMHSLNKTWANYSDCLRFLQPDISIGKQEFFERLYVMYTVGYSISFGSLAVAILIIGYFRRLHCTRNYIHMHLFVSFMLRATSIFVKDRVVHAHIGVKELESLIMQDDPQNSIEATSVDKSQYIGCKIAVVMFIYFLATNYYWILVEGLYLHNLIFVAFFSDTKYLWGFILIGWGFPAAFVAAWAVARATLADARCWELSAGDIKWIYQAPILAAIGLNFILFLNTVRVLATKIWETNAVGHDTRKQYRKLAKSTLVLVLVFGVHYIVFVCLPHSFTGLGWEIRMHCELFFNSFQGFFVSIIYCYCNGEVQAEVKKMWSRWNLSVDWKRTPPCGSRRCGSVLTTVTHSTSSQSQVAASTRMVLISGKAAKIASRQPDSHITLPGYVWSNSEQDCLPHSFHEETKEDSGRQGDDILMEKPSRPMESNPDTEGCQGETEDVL

Compound: hPTH(1-34)
Emax, % of response to 1 μM hPTH(1-34) (PTH2 receptor [1]; intrinsic activity, COS-7): 100% | Emax, % of response of rPTH2r to 3 μM rPTH(1-34) (rat PTH2 receptor; intrinsic activity, COS-7): 43 ± 4% | Emax, % of response of hPTH2r to 1 μM hPTH(1-34) (rat PTH2 receptor; [6]): 22 ± 7%

Compound: hPTH(1-84)
Emax, % of response to 1 μM hPTH(1-34) (PTH2 receptor [1]; intrinsic activity, COS-7): 79 ± 1% | Emax, % of response of rPTH2r to 3 μM rPTH(1-34) (rat PTH2 receptor; intrinsic activity, COS-7): 42 ± 5% | Emax, % of response of hPTH2r to 1 μM hPTH(1-34) (rat PTH2 receptor; [6]): 15 ± 4%

Compound: CCCC[C@H](NC(=O)[C@H](CCCNC(=N)N)NC(=O)[C@H](CCC(=O)O)NC(=O)[C@@H](NC(=O)[C@H](CO)NC(=O)[C@H](C)NC(=O)[C@H](CC(C)C)NC(=O)[C@H](Cc1c[nH]cn1)NC(=O)[C@H](CCCCN)NC(=O)CNC(=O)[C@H](CC(C)C)NC(=O)[C@H](CC(N)=O)NC(=O)[C@H](Cc1c[nH]cn1)NC(=O)[C@H](CCCC)NC(=O)[C@H](CC(C)C)NC(=O)[C@H](CCC(N)=O)NC(=O)[C@@H](NC(=O)[C@H](CCC(=O)O)NC(=O)[C@H](CO)NC(=O)[C@@H](NC(=O)[C@H](C)N)C(C)C)[C@@H](C)CC)C(C)C)C(=O)N[C@@H](CCC(N)=O)C(=O)N[C@@H](Cc1c[nH]c2ccccc12)C(=O)N[C@@H](CC(C)C)C(=O)N[C@@H](CCCNC(=N)N)C(=O)N[C@@H](CCCCN)C(=O)N[C@@H](CCCCN)C(=O)N[C@@H](CC(C)C)C(=O)N[C@@H](CCC(N)=O)C(=O)N[C@@H](CC(=O)O)C(=O)N[C@H](C(=O)N[C@@H](Cc1c[nH]cn1)C(=O)N[C@@H](CC(N)=O)C(=O)N[C@@H](Cc1ccc(O)cc1)C(N)=O)C(C)C [[Nle^8,21, Tyr^34]rPTH(1–34), [Nle^8,21, Tyr^34]rPTH(1–34) amide]
IC50 (PTH2 receptor [4]): 1.1 nM | shift (increase) of IC50 produced by 10 μM GTPγS (PTH2 receptor [4]; centrifugation assay, [125I]TIP39): 1.5 fold

Compound: PTHrP(1-34)
Emax, % of response to 1 μM hPTH(1-34) (PTH2 receptor [1]; intrinsic activity, COS-7): 25 ± 3% | Emax, % of response of rPTH2r to 3 μM rPTH(1-34) (rat PTH2 receptor; intrinsic activity, COS-7): 14 ± 1% | Emax, % of response of hPTH2r to 1 μM hPTH(1-34) (rat PTH2 receptor; [6]): 7 ± 3% | higher potency for the rat receptor than the human receptor (rat PTH2 receptor; rat vs human PTH2 receptor EC50): 14 fold

Results, then the compound that gave them:

pA2 (PTH2 receptor [1]; [5]): 6.5±0.1 | pA2 as concentration (PTH2 receptor [1]; [5]): 320 nM | basal cAMP accumulation, % of basal response in the absence of antagonist (PTH2 receptor [1]; 1 μM antagonist, no rPTH(1–34)): 110±16% | pA2 (rat PTH2 receptor; [5]): 6.5±0.2 | pA2 as concentration (rat PTH2 receptor; [5]): 310 nM | basal cAMP accumulation, % of basal response in the absence of antagonist (rat PTH2 receptor; 1 μM antagonist, no rPTH(1–34)): 104±11%
Compound: [Nle^8,18, D-Tryp^12, Tyr^34]bPTH(7–34) amide

effect of human plasma on antagonist potency (human PTH1 receptor [2]): did not reduce the antagonist potency
Compound: PTHrP(7–34) amide

difference of IC50 relative to TIP(7–39) (human PTH1 receptor [3]): 7.3 fold | effect of human plasma on antagonist potency (human PTH1 receptor [2]): did not reduce the antagonist potency
Compound: [D-Tryp^12, Tyr^34]bPTH(7–34) amide [[D-Tryp^12, Tyr^34]PTH(7–34)]

Emax (PTH2 receptor [1]; read-out: Emax, % of response to 1 μM hPTH(1-34), intrinsic activity, COS-7): 76 ± 7% | Emax (rat PTH2 receptor; COS-7, read-out: Emax, % of response of hPTH2r to 1 μM hPTH(1-34), rat receptor response relative to human PTH2 receptor response measured in parallel): 5 ± 1% | Emax (rat PTH2 receptor; read-out: Emax, % of response of rPTH2r to 3 μM rPTH(1-34), intrinsic activity, COS-7): 19 ± 3%
Compound: CCCC[C@H](NC(=O)[C@H](CO)NC(=O)[C@H](CO)NC(=O)[C@H](CC(C)C)NC(=O)[C@H](Cc1c[nH]cn1)NC(=O)[C@H](CCCCN)NC(=O)CNC(=O)[C@H](CC(C)C)NC(=O)[C@H](CC(N)=O)NC(=O)[C@H](Cc1c[nH]cn1)NC(=O)[C@H](CCCC)NC(=O)[C@H](Cc1ccccc1)NC(=O)[C@H](CCC(N)=O)NC(=O)[C@@H](NC(=O)[C@H](CCC(=O)O)NC(=O)[C@H](CO)NC(=O)[C@@H](NC(=O)[C@H](C)N)C(C)C)[C@@H](C)CC)C(=O)N[C@@H](CCC(=O)O)C(=O)N[C@@H](CCCNC(=N)N)C(=O)N[C@H](C(=O)N[C@@H](CCC(=O)O)C(=O)N[C@@H](Cc1c[nH]c2ccccc12)C(=O)N[C@@H](CC(C)C)C(=O)N[C@@H](CCCNC(=N)N)C(=O)N[C@@H](CCCCN)C(=O)N[C@@H](CCCCN)C(=O)N[C@@H](CC(C)C)C(=O)N[C@@H](CCC(N)=O)C(=O)N[C@@H](CC(=O)O)C(=O)N[C@H](C(=O)N[C@@H](Cc1c[nH]cn1)C(=O)N[C@@H](CC(N)=O)C(=O)N[C@@H](Cc1ccc(O)cc1)C(N)=O)C(C)C)C(C)C [[Nle^8,18, Tyr^34]bPTH(1-34)] (H-AVSEIQF[Nle]HNLGKHLSS[Nle]ERVEWLRKKLQDVHNY-NH2; N-terminus and C-terminus assumed)
